Test results published in article PMC6211230, “Assessment of the antiproliferative and apoptotic roles of sulfonamide carbonic anhydrase IX inhibitors in HeLa cancer cell line” (Journal of Enzyme Inhibition and Medicinal Chemistry, 2018).

Legend:
Format in all cases: cell-based, human
[1] = system: HeLa; assay: WST-1 cytotoxicity, HeLa
Experimental: (§1) Cancer and normal cell lines were purchased from ATCC and stored in liquid nitrogen. HT-29 (colon adenoma cancer), HeLa (cervix adenoma cancer cell), MDA-MB-231 (breast adenoma cancer cell) and HEK-293 (embryonic kidney epithelial cell), PNT-1A (normal prostate cells) cell lines were incubated in DMEM: F-12 and RPMI-1640, including 10% Foetal Bovine Serum (FBS), 100 μg/mL streptomycin/100 IU/mL penicillin, at 37 °C in an incubator containing 5% CO2, 95% air in a humid atmosphere.
(§2) The cytotoxic effects of the substances were evaluated with WST-1 kits (Roche, Germany) in accordance with the manufacturer’s protocols. The cells were plated on 96-well plates (10^4 cells in each well). After incubation for 24 h, the media were discarded and the substances and Cisplatin as the control drug, at doses of 0, 2.5, 5, 10, 25, 50, 100, and 200 μM, were incubated for 24, 48, and 72 h. WST-1 reactive of 10 µl was added to all wells. Following 4 h incubation, the measurements were taken on a plate reader (Spectramax M5) at wavelengths of 450 and 630 nm. Graphs were then created and the IC50 value of each substance was calculated.

[2] = system: HT-29; assay: WST-1 cytotoxicity, HT-29
Experimental: as §1, §2

[3] = system: MDA-MB-231; assay: WST-1 cytotoxicity, MDA-MB-231
Experimental: as §1, §2

[4] = system: HEK-293; assay: WST-1 cytotoxicity, HEK-293 normal cells; details: HEK-293 normal cell
Experimental: as §1, §2

[5] = system: PNT-1A; assay: WST-1 cytotoxicity, PNT-1A normal cells; details: PNT-1A normal cell
Experimental: as §1, §2

`N.N.[Cl][Pt][Cl]` [Cisplatin, reference compound] was tested. Which IC50 ([1]; 24 h) did it give?
The IC50 was 28.9 µM.

What about the IC50 ([1]; 48 h) of the same molecule?
Its IC50 is 7.6 µM.

And the IC50 ([1]; 72 h)?
The IC50 was 6.1 µM.

And the IC50 ([2]; HT-29, 24 h)?
Its IC50 is 23.7 µM.

What about the IC50 ([2]; HT-29, 48 h) of the same molecule?
The IC50 was 20 µM.

And the IC50 ([2]; HT-29, 72 h)?
Its IC50 is 16.3 µM.

And the IC50 ([3]; MDA-MB-231, 24 h)?
The IC50 was 21.2 µM.

And the IC50 ([3]; MDA-MB-231, 48 h)?
The IC50 was 10.2 µM.

What about the IC50 ([3]; MDA-MB-231, 72 h) of the same molecule?
Its IC50 is 7 µM.

What about the IC50 ([4]; 24 h) of the same molecule?
The IC50 was 29.6 µM.

And the IC50 ([4]; 48 h)?
The IC50 was 14 µM.

What about the IC50 ([4]; 72 h) of the same molecule?
Its IC50 is 2 µM.

What about the IC50 ([5]; 24 h) of the same molecule?
Its IC50 is 13.4 µM.

What about the IC50 ([5]; 48 h) of the same molecule?
The IC50 was 11.4 µM.

And the IC50 ([5]; 72 h)?
Its IC50 is 8.2 µM.

For `NS(=O)(=O)c1ccc(CCN=Cc2cc(Cl)cc(Cl)c2O)cc1` [Compound A-2], which IC50 ([1]; 24 h) is on record?
The IC50 was 345 µM.

What about the IC50 ([1]; 48 h) of the same molecule?
The IC50 was 300 µM.

And the IC50 ([1]; 72 h)?
Its IC50 is 123 µM.

And the IC50 ([2]; HT-29, 24 h)?
The IC50 was 234 µM.

What about the IC50 ([2]; HT-29, 48 h) of the same molecule?
Its IC50 is 254 µM.

And the IC50 ([2]; HT-29, 72 h)?
The IC50 was 134 µM.

What about the IC50 ([3]; MDA-MB-231, 24 h) of the same molecule?
Its IC50 is 125 µM.

What about the IC50 ([3]; MDA-MB-231, 48 h) of the same molecule?
Its IC50 is 145 µM.

And the IC50 ([3]; MDA-MB-231, 72 h)?
The IC50 was 100 µM.

And the IC50 ([4]; 24 h)?
Its IC50 is 120 µM.

What about the IC50 ([4]; 48 h) of the same molecule?
Its IC50 is 100 µM.

What about the IC50 ([4]; 72 h) of the same molecule?
The IC50 was 65.4 µM.

What about the IC50 ([5]; 24 h) of the same molecule?
Its IC50 is 167 µM.

And the IC50 ([5]; 48 h)?
Its IC50 is 170 µM.

And the IC50 ([5]; 72 h)?
The IC50 was 100 µM.

Which IC50 ([1]; 24 h) does the source give for `NS(=O)(=O)c1ccc(CCN=Cc2ccccc2O)cc1` [Compound A-3] here?
Its IC50 is 123 µM.

And the IC50 ([1]; 48 h)?
Its IC50 is 112 µM.

And the IC50 ([1]; 72 h)?
The IC50 was 76.5 µM.

And the IC50 ([2]; HT-29, 24 h)?
The IC50 was 143 µM.

What about the IC50 ([2]; HT-29, 48 h) of the same molecule?
The IC50 was 100 µM.

And the IC50 ([2]; HT-29, 72 h)?
Its IC50 is 87.4 µM.

What about the IC50 ([3]; MDA-MB-231, 24 h) of the same molecule?
The IC50 was 98.5 µM.

What about the IC50 ([3]; MDA-MB-231, 48 h) of the same molecule?
Its IC50 is 80.5 µM.

What about the IC50 ([3]; MDA-MB-231, 72 h) of the same molecule?
The IC50 was 65.4 µM.

And the IC50 ([4]; 24 h)?
The IC50 was 98.4 µM.

What about the IC50 ([4]; 48 h) of the same molecule?
Its IC50 is 65.4 µM.

What about the IC50 ([4]; 72 h) of the same molecule?
The IC50 was 32.2 µM.

And the IC50 ([5]; 24 h)?
Its IC50 is 45.4 µM.

And the IC50 ([5]; 48 h)?
The IC50 was 43.3 µM.

And the IC50 ([5]; 72 h)?
The IC50 was 23.3 µM.

`NS(=O)(=O)c1ccc(CCNCc2cc(Cl)ccc2O)cc1` [Compound B-1] was tested. Which IC50 ([1]; 24 h) did it give?
Its IC50 is 218 µM.

And the IC50 ([1]; 48 h)?
Its IC50 is 112 µM.

What about the IC50 ([1]; 72 h) of the same molecule?
Its IC50 is 98.9 µM.

What about the IC50 ([2]; HT-29, 24 h) of the same molecule?
Its IC50 is 606 µM.

And the IC50 ([2]; HT-29, 48 h)?
Its IC50 is 63.8 µM.

What about the IC50 ([2]; HT-29, 72 h) of the same molecule?
The IC50 was 91.8 µM.

What about the IC50 ([3]; MDA-MB-231, 24 h) of the same molecule?
The IC50 was 492 µM.

What about the IC50 ([3]; MDA-MB-231, 48 h) of the same molecule?
The IC50 was 595 µM.

And the IC50 ([3]; MDA-MB-231, 72 h)?
The IC50 was 243 µM.

What about the IC50 ([4]; 24 h) of the same molecule?
Its IC50 is 324 µM.

And the IC50 ([4]; 48 h)?
Its IC50 is 207 µM.

And the IC50 ([4]; 72 h)?
Its IC50 is 63.7 µM.

And the IC50 ([5]; 24 h)?
Its IC50 is 593 µM.

And the IC50 ([5]; 48 h)?
The IC50 was 190 µM.

What about the IC50 ([5]; 72 h) of the same molecule?
Its IC50 is 372 µM.

How did the IC50 ([1]; 24 h) turn out when `NS(=O)(=O)c1ccc(CCNCc2cc(Cl)cc(Cl)c2O)cc1` [Compound B-2] was run?
Its IC50 is 234 µM.

What about the IC50 ([1]; 48 h) of the same molecule?
The IC50 was 212 µM.

And the IC50 ([1]; 72 h)?
Its IC50 is 154 µM.

And the IC50 ([2]; HT-29, 24 h)?
Its IC50 is 356 µM.

What about the IC50 ([2]; HT-29, 48 h) of the same molecule?
Its IC50 is 200 µM.

What about the IC50 ([2]; HT-29, 72 h) of the same molecule?
The IC50 was 155 µM.

And the IC50 ([3]; MDA-MB-231, 24 h)?
Its IC50 is 145 µM.

What about the IC50 ([3]; MDA-MB-231, 48 h) of the same molecule?
The IC50 was 43.3 µM.

And the IC50 ([3]; MDA-MB-231, 72 h)?
The IC50 was 54.3 µM.

What about the IC50 ([4]; 24 h) of the same molecule?
The IC50 was 230 µM.

And the IC50 ([4]; 48 h)?
Its IC50 is 215 µM.

And the IC50 ([4]; 72 h)?
The IC50 was 120 µM.

And the IC50 ([5]; 24 h)?
The IC50 was 55.4 µM.

What about the IC50 ([5]; 48 h) of the same molecule?
The IC50 was 23.2 µM.

And the IC50 ([5]; 72 h)?
The IC50 was 12.3 µM.

`NS(=O)(=O)c1ccc(CCNCc2ccccc2O)cc1` [Compound B-3] was tested. Which IC50 ([1]; 24 h) did it give?
Its IC50 is 156 µM.

And the IC50 ([1]; 48 h)?
Its IC50 is 134 µM.

And the IC50 ([1]; 72 h)?
The IC50 was 45.4 µM.

What about the IC50 ([2]; HT-29, 24 h) of the same molecule?
Its IC50 is 560 µM.

And the IC50 ([2]; HT-29, 48 h)?
Its IC50 is 450 µM.

What about the IC50 ([2]; HT-29, 72 h) of the same molecule?
Its IC50 is 210 µM.

And the IC50 ([3]; MDA-MB-231, 24 h)?
Its IC50 is 345 µM.

And the IC50 ([3]; MDA-MB-231, 48 h)?
The IC50 was 234 µM.

And the IC50 ([3]; MDA-MB-231, 72 h)?
The IC50 was 126 µM.

And the IC50 ([4]; 24 h)?
The IC50 was 179 µM.

And the IC50 ([4]; 48 h)?
The IC50 was 120 µM.

And the IC50 ([4]; 72 h)?
Its IC50 is 45.4 µM.

And the IC50 ([5]; 24 h)?
The IC50 was 100 µM.

And the IC50 ([5]; 48 h)?
The IC50 was 89.4 µM.

And the IC50 ([5]; 72 h)?
Its IC50 is 70.4 µM.
